Values after ≈ are worked out from the molar mass of the structure shown.
Assay: Solubility of cholesterol in ethanol
Assay type: physicochemical
Conditions: organic solvent or mixture, room temperature, absence of other lipids and/or sterols, read-out: solubility limit in ethanol
Text: Thus, a process is provided for raising the amount of an original lipid, sterol and/or blend of lipid(s) and/or sterol(s) that may be solubilized in a solvent (e.g., an alcoholic solvent, e.g., ethanol) by pre-mixing other lipid(s), sterol(s) and/or blend of lipid(s) and/or sterol(s), as oils, powders and/or in solvent(s), before adding such a pre-mixture to the original solubility-limited lipid, sterol and/or blend of lipid(s), thereby effectively raising the solubility limit of the original lipid in the solvent. […] Without wishing to be bound by theory, it is believed that the newly discovered ability to provide high concentration solutions of lipids/sterols at such elevated concentrations enhances the homogeneity of a lipid-anionic agent particle population, as compared to the concentrations at which such lipids/sterols are routinely used within the particle formulation process.
The above-described process schematically exemplified in FIG. 1, which is also referred to herein as “2141”, was not only distinguished from other tested processes in the order of addition of DsiRNA-lipid complexes and additional lipids in ethanol, but also was distinguished from other processes by the concentration of lipids and sterols that were solubilized in the additional lipids in ethanol solution. […]

solubility: 10 to 11 mg/mL (≈ 25.9 to 28.4 mM)
SMILES: CC(C)CCC[C@@H](C)[C@H]1CC[C@H]2[C@@H]3CC=C4C[C@@H](O)CC[C@]4(C)[C@H]3CC[C@]12C [cholesterol]

From US11351265B2, “Process for formulating an anionic agent” (Dicerna Pharmaceuticals, Inc., priority 2013, dated 2022)
